Experiment: method code SF-HPLC, from Marrel, C.; Boss, G.; Van, H.; Testa, B.; Cooper, D.; Jenner, P.; Marsden, C. (1985). L-DOPA esters as potential prodrugs. Part. I. Physicochemical properties. Eur J Med Chem, 20(5)459-465.
Conditions: not given

logP	SMILES
0.08	COCC(C)OC(=O)[C@@H](N)Cc1ccc(O)c(O)c1 (stereo not given in full)
-0.49	CC(O)COC(=O)[C@@H](N)Cc1ccc(O)c(O)c1 (stereo not given in full)
0.47	N[C@@H](Cc1ccc(O)c(O)c1)C(=O)OCC1CCCCO1 (stereo not given in full)

Same assay, conditions: pH 7.4

logD	SMILES
0.55	CCCOC(=O)[C@@H](N)Cc1ccc(O)c(O)c1
0.01	CCOC(=O)[C@@H](N)Cc1ccc(O)c(O)c1
1.35	N[C@@H](Cc1ccc(O)c(O)c1)C(=O)OCCOc1ccccc1
1.53	N[C@@H](Cc1ccc(O)c(O)c1)C(=O)OC1CCCCC1
2.12	N[C@@H](Cc1ccc(O)c(O)c1)C(=O)OCCc1ccc(Cl)cc1
1.57	N[C@@H](Cc1ccc(O)c(O)c1)C(=O)OCCc1ccccc1
1.5	COc1ccc(CCOC(=O)[C@@H](N)Cc2ccc(O)c(O)c2)cc1
